These are literature values, as cited in patent US20180243247A1, “DRUG COMBINATIONS FOR CEREBROVASCULAR DISEASE” (priority 2017, published 2018).

Series [1] concerns rodent models of CNS ischemia.

Like-named read-outs stand apart in the source and are kept apart here.

`C=CC[C@@H]1/C=C(\C)C[C@H](C)C[C@H](OC)[C@H]2O[C@@](O)(C(=O)C(=O)N3CCCC[C@H]3C(=O)O[C@H](/C(C)=C/[C@@H]3CC[C@@H](O)[C@H](OC)C3)[C@H](C)[C@@H](O)CC1=O)[C@H](C)C[C@@H]2OC` [Tacrolimus]: the neuroprotection result in series [1] (dose concentration of 0.1 mg/kg) is “neuroprotective”; in series [1] (lower doses than 0.1 mg/kg, monotherapy) it was “not neuroprotective”. In series [1] (rodent models of CNS ischemia), the neuroprotective effects entry is “exhibits neuroprotective effects”.

On to `NCCCNCCCCNCCC(=O)NCCCCCNC(=O)[C@H](CC(N)=O)NC(=O)Cc1ccc(O)cc1O` [JSTX-3], for which the “calcium influx through the AMPA receptor” value in the series on AMPA receptor is on record as “dramatically reduces calcium influx”.
